According to patent US20220251054A1, “Analogues and Methods of Treating Rett Syndrome” (The Regents of the University of California, priority 2019, published 2022):
“Also recorded” adds a separate entry of the source.

Assays:
Mut Cx+GE organoids = assay: Extracellular recording of local field potentials (LFP) in Rett syndrome fusion organoids; type: cell-based, human; conditions: for high frequency oscillations (HFOs, about 200-500 Hz) / lower frequency / gamma oscillations (about 40-80 Hz) / spiking activity / spike frequency: Mut Cx+GE organoids treated 48-hr; for high frequency oscillations (HFOs, about 200-500 Hz) / lower frequency / gamma oscillations (about 40-80 Hz): 2 mM VPA or 10 μM Pifithrin-α; for spiking activity / spike frequency: 2 mM sodium valproate (VPA) or 10 μM Pifithrin-α
Mutant IPSCs = type: cell-based; conditions: 10 μM, 48 hours
[1] = test system: MECP2− (Mutant) interneurons; assay: P21 protein immunofluorescence (senescence marker) in treated neurons; type: cell-based; conditions: 10 μM, 48 hours, WT and Mutant interneurons
P53 = P53 (Homo sapiens, UniProt P04637); conditions: cited from earlier work
Cx+GE organoids = assay: Live organoid calcium imaging (GCaMP6f) with GABAA receptor antagonist; type: cell-based, human; conditions: for synchronization of calcium transients / neural activities: Cx+GE organoids, bicuculline methiodide 100 μM or gabazine 25 μM
Cx+Cx organoids = assay: as above; type: cell-based, human; conditions: for synchronization of calcium transients / neural activities: Cx+Cx organoids, bicuculline methiodide 100 μM or gabazine 25 μM

Chain of P53 (P04637 whole entry): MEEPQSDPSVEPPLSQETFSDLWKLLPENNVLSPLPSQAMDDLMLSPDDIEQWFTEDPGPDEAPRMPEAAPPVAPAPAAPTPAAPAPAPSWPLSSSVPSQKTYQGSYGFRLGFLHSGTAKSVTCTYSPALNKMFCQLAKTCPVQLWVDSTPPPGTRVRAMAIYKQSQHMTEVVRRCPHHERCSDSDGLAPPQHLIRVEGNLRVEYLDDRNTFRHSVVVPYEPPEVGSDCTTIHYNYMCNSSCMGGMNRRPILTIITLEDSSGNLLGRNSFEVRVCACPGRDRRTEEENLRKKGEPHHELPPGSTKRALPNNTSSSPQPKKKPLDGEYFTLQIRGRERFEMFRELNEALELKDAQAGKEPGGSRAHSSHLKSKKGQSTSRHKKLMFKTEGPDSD

SMILES | high frequency oscillations (HFOs, about 200-500 Hz) (Mut Cx+GE organoids) | lower frequency / gamma oscillations (about 40-80 Hz) (Mut Cx+GE organoids) | spiking activity / spike frequency (Mut Cx+GE organoids) | increased levels of P53 target genes (RT-PCR) (Mutant IPSCs) | synchronization of calcium transients / neural activities (Cx+GE organoids) | synchronization of calcium transients / neural activities (Cx+Cx organoids) | further results
CCCC(CCC)C(=O)[O-].[Na+] [VPA, sodium valproate] | neither decreased HFOs | nor restored lower frequency oscillations | significantly reduced spiking activity | – | – | – | –
Cc1ccc(-c2cn3c4c(sc3n2)CCCC4)cc1 [Pifithrin β, 2-(p-tolyl)-5,6,7,8-tetrahydroben-zo[d]imidazo[2,1-b]thiazole] | – | – | – | abrogated | – | – | –
CC(=O)/N=c1\sc2c(n1CC(=O)c1ccc(C)cc1)CCCC2 [Pifithrin α-Ac, N-(3-(2-oxo-2-(p-tolyl)ethyl)-4,5,6,7-tetrahydrobenzo[d]thiazol-2(3H)-ylidene)aceta-mide] | – | – | – | abrogated | – | – | –
Cc1ccc(C(=O)Cn2c3c(sc2=N)CCCC3)cc1 [Pifithrin α, 2-(2-imino-4,5,6,7-tetrahydrobenzo[d]thiazol-3(2H)-yl)-1-(p-tolyl)ethan-1-one hydrogen bromide] | suppressed HFOs | re-emergence of gamma oscillations | similarly reduced spike frequency | abrogated | – | – | oscillatory activity (extracellular recording) (Mut Cx+GE organoids; Mut Cx+GE organoids (RTT) exposed to 10 μM for 48 hours, Day 100): reveal oscillatory activity at multiple frequencies; sustained oscillatory activity (PSD) (Mut Cx+GE organoids; Mut Cx+GE organoids exposed to 100 μM for 48 hours, Day 100): shows rescue of sustained oscillatory activity; cell senescence (P21 protein level by immunofluorescence) [1]: block cell senescence due to increased p53 activity; P53 inhibition (P53): effective P53 inhibitor
C[N+]1(C)CCc2cc3c(cc2[C@H]1[C@@H]1OC(=O)c2c1ccc1c2OCO1)OCO3.[I-] [BMI, bicuculline methiodide] | – | – | – | – | spontaneous synchronization of neural activities; also recorded: epochs of nearly complete synchronization of calcium transients | minimal effect; also recorded: no such effect | hierarchical clustering: groups of neurons with correlated activity (Cx+GE organoids; Cx+GE organoids following BMI treatment): large groups of neurons with highly correlated activity; hierarchical clustering: groups of neurons with correlated activity (Cx+Cx organoids; Cx+Cx organoids following BMI treatment): only small groups
COc1ccc(-c2ccc(=N)n(CCCC(=O)O)n2)cc1 [Gabazine] | – | – | – | – | epochs of nearly complete synchronization of calcium transients | no such effect | –
